Laboratory results: the NIST ThermoML archive (doi:10.1021/je401015e)

Settings: Liquid; for mass density: Buoyancy - hydrostatic balance with magnetic suspension - one sinker

C=CCCCC [hex-1-ene]
Settings	mass density [kg/m3]	viscosity [mPa·s]
298.15 K, 98 kPa	669.71	0.271
298.15 K, 24510 kPa	696.93	0.337
298.15 K, 49030 kPa	714.95	0.415
298.15 K, 98060 kPa	744.22	0.55
298.15 K, 147100 kPa	763.36	0.705
298.15 K, 196130 kPa	778.91	0.876
298.15 K, 245160 kPa	793.17	1.093
303.15 K, 98 kPa	664.87	0.256
303.15 K, 24510 kPa	690.93	0.321
303.15 K, 49030 kPa	711.55	0.395
303.15 K, 98060 kPa	741.4	0.525
303.15 K, 147100 kPa	761.37	0.67
303.15 K, 196130 kPa	776.19	0.84
303.15 K, 245160 kPa	791.19	1.034
312.92 K, 98 kPa	655.77	0.232
325.17 K, 98 kPa	644.12	0.21
325.99 K, 98060 kPa	729.28	0.442
326 K, 24510 kPa	675.1	0.274
326.02 K, 49030 kPa	694.93	0.328
326.05 K, 147100 kPa	750.05	0.561
326.12 K, 196130 kPa	767.98	0.694
326.15 K, 245160 kPa	783.2	0.836
364.25 K, 245160 kPa	767.68	0.628
364.63 K, 196130 kPa	751.74	0.54
364.69 K, 49030 kPa	670.17	0.254
364.73 K, 24510 kPa	645.55	0.214
364.75 K, 98060 kPa	706.69	0.346
364.83 K, 147100 kPa	731.74	0.437
398.25 K, 147100 kPa	715.97	0.363
398.35 K, 245160 kPa	753.74	0.516
398.37 K, 196130 kPa	736.05	0.444
398.43 K, 24510 kPa	618.11	0.17
398.78 K, 98060 kPa	687.13	0.287
398.87 K, 49030 kPa	645.8	0.211
422.37 K, 245160 kPa	743.17	0.456
422.71 K, 196130 kPa	726.21	0.389
422.74 K, 147100 kPa	703.54	0.319
422.9 K, 98060 kPa	672.81	0.252
423.1 K, 49030 kPa	630.04	0.184
423.18 K, 24510 kPa	598.39	0.146
452.77 K, 24510 kPa	575.45	0.124
453.14 K, 49030 kPa	608.12	0.16
453.14 K, 196130 kPa	712.63	0.338
453.19 K, 98060 kPa	656.91	0.218
453.28 K, 147100 kPa	687.84	0.277
453.52 K, 245160 kPa	732.58	0.397
471.55 K, 196130 kPa	704.21	0.315
471.64 K, 245160 kPa	725.42	0.371
471.73 K, 49030 kPa	598.79	0.15
471.78 K, 98060 kPa	646.27	0.204
471.92 K, 24510 kPa	560.56	0.115
472.02 K, 147100 kPa	680.82	0.26
